{"source": "patent US9957226B2", "about": "“Antimicrobial compounds” (AKTHELIA PHARMACEUTICALS, priority 2013, dated 2018)", "key": {"CAMP gene [1]": {"system": "CAMP gene", "experiment": "Fold induction assay in the MN8CampLuc reporter cell line (luciferase coupled to CAMP gene)", "assay_type": "cell-based, human", "details": "for Fold induction (as luciferase activity): cells pre-differentiated by treatment with galactose, FIG. 4 and FIG. 5", "procedure": "MN8CampLuc cells were handled according to Nylen et. al. with the following exception when predifferention of cells were performed before induction: […]"}, "histone deacetylases": {"system": "histone deacetylases", "details": "average of assays reported in PubChem, FIG. 4 right panel; cited from earlier work"}, "CAMP gene [2]": {"system": "CAMP gene", "experiment": "RT-PCR of CAMP gene expression in parental HT-29 cell line", "assay_type": "cell-based, human", "procedure": "RT-PCR experiments were performed according to Nylen et. al. (Nylén F, Miraglia E, Cederlund A, Ottosson H, Stromberg R, Gudmundsson G H, Agerberth B. 2013. Boosting innate immunity: Development and validation of a cell-based screening assay to identify LL-37 inducers. Innate Immun.)."}, "[3]": {"system": "autophagy-related genes Beclin-1 and AtgS", "experiment": "RT-PCR of autophagy marker genes in HEK-293 cells", "assay_type": "cell-based", "details": "for Expression of autophagy-related genes Beclin-1 and AtgS: 24 hrs, PBA 2 mM, compound 5 10 μM, Rapamycin 100 nM, FIG. 9 upper panel", "procedure": "(§1) RT-PCR experiments for expression of marker genes for autophagy in HEK-293 cells were measured by real-time PCR. Data were normalized by the expression of the 18s rRNA housekeeping gene. For the immunofluorescence spectroscopy experiments HEK-293 cells were fixed after treatment with the inducers or control. The cells were then stained with DAPI to visualize the nuclei (blue), and immunolabeled with the anti-LC3, followed by the addition of Alexa-fluor 488 (green). Scale bar=10 μm."}, "LC3": {"system": "LC3", "experiment": "Immunofluorescence of LC3 in HEK-293 cells", "assay_type": "cell-based", "details": "10 μM, 24 hrs, FIG. 9 lower panel", "procedure": "as §1"}, "[4]": {"details": "MN8CampLuc reporter cell line, FIG. 2"}, "[5]": {"details": "MN8CampLuc reporter cell line, FIG. 6"}}, "note": "Entries after “also recorded” stand apart in the source; their conditions may differ. Like-named read-outs stand apart in the source and are kept apart here.", "data": [{"compound": "Nc1ccccc1NC(=O)c1ccc(CNC(=O)OCc2ccccc2)cc1", "note": "[Compound 4, Benzyl (4-((2-aminophenyl)carbamoyl)-benzyl)carbamate]", "values": [{"measurement": "Concentration required for induction", "setting": "CAMP gene [1]; MN8CampLuc, FIG. 2", "value": "slightly higher concentration"}]}, {"compound": "NCCNC(=O)c1ccccc1", "note": "[Compound 17, N-(2-aminoethyl)-benzamide]", "values": [{"measurement": "Fold induction (as luciferase activity)", "setting": "CAMP gene [1]; MN8CampLuc", "value": "abolition of induction; also recorded: complete or significant loss of the induction ability"}]}, {"compound": "Nc1ccccc1NC(=O)c1ccccc1", "note": "[Compound 1, N-(2-Aminophenyl)benzamide]", "values": [{"measurement": "Concentration required for induction", "setting": "CAMP gene [1]; MN8CampLuc, FIG. 2", "value": "slightly higher concentration"}]}, {"compound": "CC(/C=C/C(=O)NO)=C\\[C@@H](C)C(=O)c1ccc(N(C)C)cc1", "note": "[Compound 19, Trichostatin A]", "values": [{"measurement": "Fold induction (as luciferase activity)", "setting": "CAMP gene [1]; MN8CampLuc", "value": "much less fold induction than compound 5"}, {"measurement": "HDAC inhibition (known IC50 values) compared with compound 5", "setting": "histone deacetylases", "value": "considerably more powerful HDAC inhibitors"}]}, {"compound": "CN(C)c1ccc(NC(=O)CCCC(=O)Nc2ccccc2N)cc1", "note": "[Compound 9, N^1-(2-aminophenyl)-N^5-(4-(dimethylamino)-phenyl)glutaramide]", "values": [{"measurement": "Fold induction of the CAMP gene (LL-37-luciferase)", "setting": "CAMP gene [1]; [4]", "value": "at a cost of inducing ability"}]}, {"compound": "COc1ccc(C(=O)NCCN)cc1", "note": "[Compound 18, N-(2-aminoethyl)-4-methoxybenzamide]", "values": [{"measurement": "Fold induction (as luciferase activity)", "setting": "CAMP gene [1]; MN8CampLuc", "value": "abolition of induction; also recorded: complete or significant loss of the induction ability"}]}, {"compound": "COc1ccccc1NC(=O)c1ccccc1", "note": "[Compound 15, N-(2-methoxyphenyl)benzamide]", "values": [{"measurement": "Fold induction of the CAMP gene (LL-37-luciferase)", "setting": "CAMP gene [1]; [4]", "value": "virtually no induction; also recorded: complete or significant loss of the induction ability"}]}, {"compound": "COc1ccc(C(=O)Nc2ccccc2N)cc1", "note": "[Compound 2, N-(2-Aminophenyl)-4-methoxybenzamide]", "values": [{"measurement": "Concentration required for induction", "setting": "CAMP gene [1]; MN8CampLuc, FIG. 2", "value": "slightly higher concentration"}]}, {"compound": "O=C(Nc1ccccc1O)c1ccccc1", "note": "[Compound 14, N-(2-Hydroxyphenyl) benzamide]", "values": [{"measurement": "Fold induction of the CAMP gene (LL-37-luciferase)", "setting": "CAMP gene [1]; [4]", "value": "virtually no induction; also recorded: complete or significant loss of the induction ability"}]}, {"compound": "COc1ccc(CNc2ccccc2N)cc1", "note": "[Compound 16, N-(4-Methoxybenzyl)-1,2-benzenediamine]", "values": [{"measurement": "Fold induction (as luciferase activity)", "setting": "CAMP gene [1]; MN8CampLuc", "value": "at a cost of inducing ability"}]}, {"compound": "O=C(NCc1ccc(C(=O)O)cc1)OCc1cccnc1", "note": "[Compound 11, 4-((((pyridin-3-ylmethoxy)carbonyl)amino)methyl)benzoic acid]", "values": [{"measurement": "Fold induction of the CAMP gene (LL-37-luciferase)", "setting": "CAMP gene [1]; [4]", "value": "virtually no induction; also recorded: complete inactivity"}]}, {"compound": "COC(=O)Cn1cc(C(=O)NCc2ccc(C(=O)Nc3ccccc3N)cc2)nn1", "note": "[Compound 6, Methyl 2-(4-((4-((2-aminophenyl)carbamoyl)benzyl)carbamoyl)-1 H-1,2,3-triazol-1-yl)acetate]", "values": [{"measurement": "Concentration required for induction", "setting": "CAMP gene [1]; MN8CampLuc, FIG. 2", "value": "slightly higher concentration"}]}, {"compound": "O=C(CCCCCCC(=O)Nc1ccccc1)NO", "note": "[Compound 12, N1-hydroxy-N8-phenyloctanediamide]", "values": [{"measurement": "Fold induction (as luciferase activity)", "setting": "CAMP gene [1]; MN8CampLuc", "value": "much less fold induction than compound 5"}, {"measurement": "Fold induction of the CAMP gene", "setting": "CAMP gene [1]; MN8CampLuc, with and without pre-differentiation of cells by galactose, FIG. 3", "value": "little induction; also recorded: poor inducer"}]}, {"compound": "Phenylbutyrate [Compound 13]", "values": [{"measurement": "Fold induction of the CAMP gene (LL-37-luciferase)", "setting": "CAMP gene [1]", "value": "considerably lower induction"}, {"measurement": "CAMP gene expression (mRNA), course over time", "setting": "CAMP gene [2]; HT-29 cells, FIG. 8", "value": "gradual increase of the CAMP gene expression"}, {"measurement": "Expression of autophagy-related genes Beclin-1 and AtgS", "setting": "[3]", "value": "increased expression"}]}, {"compound": "Nc1ccccc1NC(=O)c1ccc(CNC(=O)OCc2cccnc2)cc1", "note": "[Compound 5, Pyridin-3-ylmethyl (4-((2-aminophenyl)-carbamoyl)benzyl)carbamate]", "values": [{"measurement": "Induction in combination with VitD", "setting": "CAMP gene [1]; [5]", "value": "synergistic effect; also recorded: Synergism with Vitamin D"}, {"measurement": "Induction on co-incubation with PBA (13)", "setting": "CAMP gene [1]; [5]", "value": "reduces entinostat-elicited induction"}, {"measurement": "Inducing concentration lower than that of PBA", "setting": "CAMP gene [1]; MN8CampLuc, 0.625-5 μM vs PBA 2-4 mM", "value": "about 3 orders of magnitude"}, {"measurement": "Concentration required for induction", "setting": "CAMP gene [1]; MN8CampLuc, FIG. 2", "value": "lowest concentration; also recorded: effective already at μM concentrations"}, {"measurement": "Induction compared with PBA (13) at 2-4 mM", "setting": "CAMP gene [1]; MN8CampLuc, compound 5 at 0.625-5 μM, FIG. 2", "value": "considerably higher"}, {"measurement": "Induction of the CAMP gene at mRNA level (RT-PCR)", "setting": "CAMP gene [2]; HT29 parental cells, FIG. 7", "value": "induces the CAMP gene; also recorded: enhanced transcription of the CAMP gene"}, {"measurement": "Induction of the CAMP gene at mRNA level in combination with Vitamin D", "setting": "CAMP gene [2]; HT29 parental cells, FIG. 7", "value": "synergy with Vitamin D; also recorded: synergism with Vitamin D"}, {"measurement": "CAMP gene expression (mRNA), time course", "setting": "CAMP gene [2]; HT-29 cells, 4 and 8 h, FIG. 8", "value": "did not induce"}, {"measurement": "CAMP gene expression (mRNA), time course", "setting": "CAMP gene [2]; HT-29 cells, 24 and 48 h, FIG. 8", "value": "induction was prominent"}, {"measurement": "Expression of autophagy-related genes Beclin-1 and AtgS", "setting": "[3]", "value": "increased expression"}, {"measurement": "Expression of autophagy-related genes Beclin-1 and AtgS", "setting": "[3]; listed as Entinostat", "value": "upregulate the expression"}, {"measurement": "Autophagy", "setting": "[3]; marker genes and LC-3, FIG. 9", "value": "induce autophagy; also recorded: stimulates autophagy"}, {"measurement": "LC3 expression in its membrane form (LC3-II)", "setting": "LC3", "value": "upregulate"}]}]}
